The source of these data is patent publication US10761087B2, “Choroidal neovascularization suppressor or drusen formation suppressor, and method for assessing or screening for same” (Link Genomics, Inc., priority 2015, dated 2020).

For test [1], the system named is EMT markers (mesenchymal markers, ECM) in RPE cells (ARPE-19). Briefly: Change in expression of EMT markers (real-time PCR) in EMT-induced RPE cells. The class given is cell-based, human. To be noted: EMT-induced ARPE-19, 48 hours; for Enhancement of expression of Fibronectin, Snail and vimentin (mesenchymal markers): compound at Cmax, ½ of Cmax or ¼ of Cmax; for EMT suppression (FIG. 3 to FIG. 7) / Expression of EMT markers other than the ten common markers / Expression of Snail, Slug, CDH3, MMP1, MMP7, COL5A3, COL6A3, LAMC2, HMMR, TNC: oxaprozin 300 μM, epalrestat 30 μM, zafirlukast 3 μM, amlexanox 30 μM, zaltoprofen 30 μM. The procedure: RPE cells (ARPE-19) were seeded on a plate, and incubated for 5 days at 37° C. For the RPE cells, EMT was induced in the conditions described in Test example 1-1, and respective compounds (oxaprozin, epalrestat, zafirlukast, amlexanox, zaltoprofen) were added simultaneously, and the cells were collected after 48 hours from induction of EMT. As a control, a sample to which a compound to be assessed (test drug) is not added was used. The collected cells were washed with PBS, and 350 μL of an RLT buffer was added to prepare a lysate for RNA extraction. The respective compounds were used in the following concentrations. Oxaprozin: 300 μM, epalrestat: 30 μM, zafirlukast: 3 μM, amlexanox: 30 μM, zaltoprofen: 30 μM. Total RNA was extracted from the lysate using an RNeasy Micro kit (QIAGEN, #74004), and from 2 μg of the obtained RNA, cDNA was prepared using a SuperScript III First-Strand Synthesis SuperMix for qRT-PCR (Invitrogen, #11752-250). Using 50 ng of the obtained cDNA as a template, a real-time PCR (ABI Prism 7500 Sequence Detection System) was conducted according to the manufacturer's protocol, and expression of mRNA of each gene was quantified. Specific primers for respective genes were purchased from Invitrogen. Ct (Threshold Cycle) value of each gene was calculated as a percentage to a non-treated sample after normalization by endogenous control.
Five compounds (flufenamic acid aluminum (addition concentration: 28 μM (Cmax)), mefenamic acid (addition concentration: 39 μm (Cmax)), sulindac (addition concentration: 100 μM), tiaprofenic acid (addition concentration: 1000 μM), and seratrodast (addition concentration: 31 μM (Cmax))) were assessed for change in expression of EMT markers in the same manner as in Test example 2-1. The results are shown in FIG. 8 to FIG. 12, respectively.
(§1) RPE cells (ARPE-19) were seeded on a plate, and incubated for 5 days at 37° C. […] Each compound was added in a concentration of Cmax, ½ of Cmax or ¼ of Cmax. As a control, a sample to which a compound to be assessed (test drug) is not added was used. The collected cells were washed with PBS, and 350 μL of an RLT buffer was added to prepare a lysate for RNA extraction. Total RNA was extracted from the lysate using an RNeasy Micro kit (QIAGEN, #74004), and from 2 μg of the obtained RNA, cDNA was prepared using a SuperScript III First-Strand Synthesis SuperMix for qRT-PCR (Invitrogen, #11752-250). Using 50 ng of the obtained cDNA as a template, a real-time PCR (ABI Prism 7500 Sequence Detection System) was conducted according to the manufacturer's protocol, and expression of mRNA of each gene was quantified. Specific primers for respective genes were purchased from Invitrogen. Ct (Threshold Cycle) value of each gene was calculated as a percentage to a non-treated sample after normalization by endogenous control. For each result, a significant test (Student t test) was conducted, and when p<0.05, the result was marked with “*”, and when p<0.01, the result was marked with “**”.
RPE cells (ARPE-19) were seeded on a plate, and incubated for 5 days at 37° C. For the RPE cells, EMT was induced in the conditions described in Test example 5-1, and the five representative compounds (oxaprozin, epalrestat, zafirlukast, amlexanox, zaltoprofen) were added simultaneously, and the cells were collected after 48 hours from induction of EMT. As a control, a sample to which a compound to be assessed (test drug) is not added was used. The collected cells were washed with PBS, and 350 μL of an RLT buffer was added to prepare a lysate for RNA extraction. Total RNA was extracted from the lysate using an RNeasy Micro kit (QIAGEN, # 74004), and from 2 μg of the obtained RNA, cDNA was prepared using a SuperScript III First-Strand Synthesis SuperMix for qRT-PCR (Invitrogen, # 11752-250). […]

Another test concerns VEGF. Briefly: Change in expression of VEGF mRNA (real-time PCR) in EMT-induced RPE cells. Format: cell-based, human. To be noted: EMT-induced ARPE-19, 48 hours, compound at Cmax, ½ of Cmax or ¼ of Cmax. On the procedure:
as §1
The results are shown in FIG. 16 or FIG. 17, respectively.
The VEGF suppressive effect was assessed using the cell model as described above in the same manner as in Test example 2-3. The results are shown in FIG. 18 to FIG. 20, respectively.
(In general: Quantitative PCR measures a nucleic acid by following its amplification.)

As for `O=C(O)CCc1nc(-c2ccccc2)c(-c2ccccc2)o1` [Oxaprozin, oxaprozin], in test [1], the “Enhancement of expression of Fibronectin, Snail and vimentin (mesenchymal markers)” value is on record as “suppressed enhancement of expression of these in a concentration dependent manner”; the “EMT suppression (FIG. 3 to FIG. 7)” value is on record as “significantly suppress EMT”; the “Expression of EMT markers other than the ten common markers” value is “decrease in expression was observed in ZEB2, MMP3, COL1A1, COL1A2, CSPG4, and SRGN”; the “Expression of Snail, Slug, CDH3, MMP1, MMP7, COL5A3, COL6A3, LAMC2, HMMR, TNC” value is “suppressed expression”. The “Enhancement of VEGF mRNA expression by EMT induction” value (“Enhancement of VEGF mRNA expression” for short) in the test with VEGF is on record as “suppressed enhancement of VEGF expression in a concentration dependent manner”. Further, the “Enhancement of VEGF mRNA expression” value in the test on VEGF (listed as oxaprozin) was “suppress enhancement of mRNA expression of VEGF”.
With `CC(C(=O)O)c1ccc2c(c1)CC(=O)c1ccccc1S2` (stereo not drawn) [Zaltoprofen, zaltoprofen], in test [1], the “Enhancement of expression of Fibronectin, Snail and vimentin (mesenchymal markers)” value was “suppressed enhancement of expression of these in a concentration dependent manner”; the “EMT suppression (FIG. 3 to FIG. 7)” value is on record as “significantly suppress EMT”; the “Expression of EMT markers other than the ten common markers” value is “decrease in expression was observed in ZEB2, FN1, COL13A1, and CSPG4”; the “Expression of Snail, Slug, CDH3, MMP1, MMP7, COL5A3, COL6A3, LAMC2, HMMR, TNC” value is “suppressed expression”. For the same molecule, the “Enhancement of VEGF mRNA expression” value in the test with VEGF is reported as “suppressed enhancement of VEGF expression in a concentration dependent manner”. The “Enhancement of VEGF mRNA expression” value in the test on VEGF (listed as zaltoprofen) is listed as “suppress enhancement of mRNA expression of VEGF”.
